Test results from ChEMBL document CHEMBL3045943, “Novel N-aryl(alkaryl)-2-[(3-R-2-oxo-2H-[1,2,4]triazino[2,3-c]quinazoline-6-yl)thio]acetamides: synthesis, cytotoxicity, anticancer activity, COMPARE analysis and docking” (2013).

Assays:
Format in all cases: functional
[1] = tested on: NCI-H522; test: Cytotoxicity against Homo sapiens (human) NCI-H522 cells assessed as cell growth at 10 uM after 48 hr by SRB assay relative to control; details: NCI-H522, 48 h, read-out: Activity
[2] = tested on: Photobacterium leiognathi; test: Growth inhibition of Photobacterium leiognathi Sh1 assessed as bio-luminescence at 0.25 mg/ml after 16 to 18 hr by chronic action test relative to control; set-up: scale not given: the % may be the effect or the level left
[3] = tested on: Photobacterium leiognathi; test: Growth inhibition of Photobacterium leiognathi Sh1 assessed as bio-luminescence at 0.25 mg/ml after 10 min by acute action test relative to control; set-up: scale not given: the % may be the effect or the level left
[4] = tested on: Photobacterium leiognathi; test: Growth inhibition of Photobacterium leiognathi Sh1 assessed as bio-luminescence at 0.025 mg/ml after 16 to 18 hr by chronic action test relative to control; set-up: scale not given: the % may be the effect or the level left
[5] = tested on: Photobacterium leiognathi; test: Growth inhibition of Photobacterium leiognathi Sh1 assessed as bio-luminescence at 0.025 mg/ml after 10 min by acute action test relative to control; set-up: scale not given: the % may be the effect or the level left
[6] = tested on: Photobacterium leiognathi; test: Growth inhibition of Photobacterium leiognathi Sh1 assessed as bio-luminescence at 0.1 mg/ml after 10 min by acute action test relative to control; set-up: scale not given: the % may be the effect or the level left
[7] = tested on: SR; test: Cytotoxicity against Homo sapiens (human) SR cells assessed as cell growth at 10 uM after 48 hr by SRB assay relative to control; details: read-out: Activity
[8] = tested on: Photobacterium leiognathi; test: Growth inhibition of Photobacterium leiognathi Sh1 assessed as bio-luminescence at 0.1 mg/ml after 16 to 18 hr by chronic action test relative to control; set-up: scale not given: the % may be the effect or the level left
[9] = tested on: MOLT-4; test: Cytotoxicity against Homo sapiens (human) MOLT4 cells assessed as cell growth at 10 uM after 48 hr by SRB assay relative to control; details: MOLT-4, 48 h, read-out: Activity
[10] = tested on: UO-31; test: Cytotoxicity against Homo sapiens (human) UO31 cells assessed as cell growth at 10 uM after 48 hr by SRB assay relative to control; details: UO-31, 48 h, read-out: Activity
[11] = tested on: K562; test: Cytotoxicity against Homo sapiens (human) K562 cells assessed as cell growth at 10 uM after 48 hr by SRB assay relative to control; details: K562, 48 h, read-out: Activity
[12] = tested on: LOX IMVI; test: Cytotoxicity against Homo sapiens (human) LOXIMVI cells assessed as cell growth at 10 uM after 48 hr by SRB assay relative to control; details: read-out: Activity
[13] = tested on: U-251; test: Cytotoxicity against Homo sapiens (human) U251 cells assessed as cell growth at 10 uM after 48 hr by SRB assay relative to control; details: U-251, 48 h, read-out: Activity

Row | Compound | growth at 10 µM [1] | Activity [2] | Activity [3] | Activity [4] | Activity [5] | Activity [6] | growth at 10 µM [7] | Activity [8] | growth at 10 µM [9] | growth at 10 µM [10] | growth at 10 µM [11] | growth at 10 µM [12] | growth at 10 µM [13]
1 | Cc1ccc(-c2nn3c(SCC(=O)Nc4ccccc4C(=O)O)nc4ccccc4c3nc2=O)cc1 | 78.2% |  |  |  |  |  |  |  |  |  |  |  | 
2 | Cc1ccc(CNC(=O)CSc2nc3ccccc3c3nc(=O)c(C)nn23)cc1 |  | 150% | 128.6% | 122.2% | 88.3% | 100% | 81.8% | 212.8% |  |  |  |  | 
3 | COc1ccccc1CNC(=O)CSc1nc2ccccc2c2nc(=O)c(C)nn12 |  | 188% | 139.4% | 93.3% | 89.2% | 110% | 75.6% | 160% |  |  |  |  | 
4 | COc1ccc(CNC(=O)CSc2nc3ccccc3c3nc(=O)c(C)nn23)cc1 |  | 180% | 151.5% | 138.7% | 92.3% | 130% | 71.5% | 176% |  |  |  |  | 
5 | COc1ccc(CNC(=O)CSc2nc3ccccc3c3nc(=O)c(-c4ccccc4)nn23)cc1 |  | 40% | 138.7% | 50% | 111.5% | 106.2% |  | 44.4% | 78.7% |  |  |  | 
6 | Cc1nn2c(SCC(=O)NCc3cccc(C(F)(F)F)c3)nc3ccccc3c2nc1=O |  | 193.3% | 100% | 123.6% | 66.7% | 75% |  | 92.3% |  | 54.5% |  |  | 
7 | O=C(CSc1nc2ccccc2c2nc(=O)c(-c3ccccc3)nn12)NCc1cccc(C(F)(F)F)c1 |  | 0% | 17.78% | 13.33% | 66.67% | 33.33% |  | 10.67% |  |  |  |  | 
8 | Cc1nn2c(SCC(=O)NCc3ccccc3F)nc3ccccc3c2nc1=O |  | 200% | 170% | 130.2% | 116.7% | 66.7% |  | 233.3% |  |  | 77.8% |  | 
9 | Cc1nn2c(SCC(=O)NCc3ccc(F)cc3)nc3ccccc3c2nc1=O |  | 200% | 91.7% | 118.2% | 77.8% | 78.8% |  | 123.1% |  | 61.6% |  |  | 
10 | Cc1nn2c(SCC(=O)NCCc3ccccc3)nc3ccccc3c2nc1=O |  | 133.3% | 100% | 136.4% | 72.2% | 87.5% |  | 100% |  | 77.3% |  |  | 
11 | O=C(CSc1nc2ccccc2c2nc(=O)c(-c3ccccc3)nn12)NCCc1ccccc1 |  | 57.1% | 119.4% | 222.2% | 109.5% | 121.5% |  | 400% |  |  |  | 61.1% | 
12 | Cc1ccc(-c2nn3c(SCC(=O)Nc4ccc(C(F)(F)F)cc4)nc4ccccc4c3nc2=O)cc1 |  | 100% | 142.5% | 51.2% | 103.3% | 113.3% | 66% | 116.7% |  |  |  |  | 
13 | Cc1nn2c(SCC(=O)Nc3ccccc3F)nc3ccccc3c2nc1=O |  | 142.86% | 50.56% | 142.86% | 84.27% | 73.03% |  | 196.43% |  |  |  |  | 
14 | O=C(CSc1nc2ccccc2c2nc(=O)c(-c3ccccc3)nn12)Nc1cccc(F)c1 |  | 92.59% | 96.36% | 44.44% | 94.55% | 90.91% |  | 38.89% |  |  |  |  | 
15 | Cc1ccc(-c2nn3c(SCC(=O)Nc4cccc(F)c4)nc4ccccc4c3nc2=O)cc1 |  | 41.46% | 65.22% | 69.51% | 97.83% | 93.48% |  | 32.93% |  |  |  |  | 
16 | Cc1ccc(-c2nn3c(SCC(=O)Nc4ccc(F)cc4)nc4ccccc4c3nc2=O)cc1 |  | 166.67% | 8.16% | 250% | 75.51% | 36.73% |  | 133.33% |  |  |  |  | 

Row | Compound | growth at 10 µM [1] | Activity [2] | Activity [3] | Activity [4] | Activity [5] | Activity [6] | growth at 10 µM [7] | Activity [8] | growth at 10 µM [9] | growth at 10 µM [10] | growth at 10 µM [11] | growth at 10 µM [12] | growth at 10 µM [13]
17 | O=C(CSc1nc2ccccc2c2nc(=O)c(-c3ccccc3)nn12)Nc1cccc(Cl)c1 |  | 101.39% | 59.52% | 101.39% | 104.76% | 109.52% |  | 100% |  |  |  |  | 
18 | Cc1nn2c(SCC(=O)Nc3cccc(Cl)c3)nc3ccccc3c2nc1=O |  | 42.9% | 104.5% | 185.2% | 99.3% | 99.1% |  | 250% |  |  | 57.2% |  | 
19 | O=C(CSc1nc2ccccc2c2nc(=O)c(-c3ccccc3)nn12)Nc1ccc(Cl)cc1 |  | 87.5% | 142.9% | 88.9% | 100% | 120% |  | 212.8% | 77.5% |  |  |  | 
20 | Cc1ccc(-c2nn3c(SCC(=O)Nc4ccc(Cl)cc4)nc4ccccc4c3nc2=O)cc1 |  | 37.5% | 31.91% | 75% | 68.09% | 63.83% |  | 93.75% |  |  |  |  | 
21 | Cc1ccc(-c2nn3c(SCC(=O)Nc4ccccc4[N+](=O)[O-])nc4ccccc4c3nc2=O)cc1 |  | 50% | 62.5% | 93% | 83.3% | 36% |  | 250% |  |  |  |  | 
22 | Cc1nn2c(SCC(=O)NCc3ccccc3)nc3ccccc3c2nc1=O |  | 250% | 91.7% | 72.7% | 66.7% | 87.5% |  | 115.4% | 78.5% |  |  |  | 
23 | Cc1nn2c(SCC(=O)Nc3ccccc3)nc3ccccc3c2nc1=O |  | 57.78% | 95.59% | 88.89% | 95.59% | 98.53% |  | 61.11% |  |  |  |  | 
24 | O=C(CSc1nc2ccccc2c2nc(=O)c(-c3ccccc3)nn12)Nc1ccccc1 |  | 80.56% | 47.62% | 90.28% | 95.24% | 78.57% |  | 83.33% |  |  |  |  | 
25 | COc1ccc(-c2nn3c(SCC(=O)Nc4ccccc4C)nc4ccccc4c3nc2=O)cc1 |  | 94.55% | 68.42% | 90.91% | 96.49% | 82.46% |  | 94.55% |  |  |  |  | 
26 | Cc1cccc(NC(=O)CSc2nc3ccccc3c3nc(=O)c(C)nn23)c1 |  | 14.29% | 73.12% | 196.43% | 96.77% | 98.92% |  | 178.57% |  |  |  |  | 
27 | COc1ccccc1NC(=O)CSc1nc2ccccc2c2nc(=O)c(-c3ccccc3)nn12 |  | 18.18% | 53.85% | 22.73% | 71.15% | 63.46% |  | 11.36% |  |  |  |  | 
28 | COc1ccc(NC(=O)CSc2nc3ccccc3c3nc(=O)c(-c4ccc(C)cc4)nn23)cc1 | 57.9% | 75% | 142.9% | 95.6% | 88.3% | 106% |  | 117% |  |  |  |  | 61.1%
29 | Cc1nn2c(SCC(=O)Nc3ccccc3C(F)(F)F)nc3ccccc3c2nc1=O |  | 97.14% | 88.89% | 100% | 88.89% | 86.67% |  | 100% |  |  |  |  | 
30 | O=C(CSc1nc2ccccc2c2nc(=O)c(-c3ccccc3)nn12)Nc1cccc(C(F)(F)F)c1 |  | 187.5% | 46.67% | 187.5% | 96.67% | 100% |  | 203.13% |  |  |  |  | 
31 | CN(C)[C@@H]1C(O)=C(C(N)=O)C(=O)[C@@]2(O)C(O)=C3C(=O)c4c(O)cccc4[C@@](C)(O)[C@H]3C[C@@H]12 [TETRACYCLINE] |  | 0% | 0% | 0% | 80.7% | 9.1% |  | 0% |  |  |  |  | 
